# Results taken from patent US8653104B2, “PTEN inhibitor or Maxi-K channels opener” (Otsuka Pharmaceuticals Co., Ltd., priority 2003, dated 2014).
# How the values were obtained:
# [1] = target: T1, Maxi-K channels (Homo sapiens, UniProt Q12791); test: Whole-cell K+ current recording (patch clamp) in SK-N-SH cells; format: cell-based
# T1 construct: endogenous in cells; host or cells: SK-N-SH (KCLB 30011) human neuroblastoma cells
# Protocol: (§1) Cell cultures: SK-N-SH (KCLB 30011, human brain neuroblastoma) cells were cultured in Eagle's minimum essential medium (MEM) with 2 mM L-glutamine and 1.0 mM sodium pyruvate supplemented with 10% heat-inactivated fetal bovine serum. Cells were grown to confluence at 37° C. in 5% CO2 and used for experiments at no greater than passage 20.
# Recording of the whole-cell K^+ current: The experiments were performed in a small bath (0.5 ml) mounted on the stage of an inverted microscope (Nikon model TE300, Tokyo, Japan) perfused continuously at a flow rate of 1 ml/min. Using the whole-cell configuration of the patch clamp technique, the K^+ currents were recorded at room temperature (20˜22° C.) with an Axopatch-200B patch clamp amplifier (Axon Instruments, Foster City, Calif.). Currents were sampled at 1 to 10 kHz after anti-alias filtering at 0.5 to 5 kHz. Data acquisition and command potentials were controlled by pClamp 6.0.3 software (Axon Instruments, Foster City, Calif.). To ensure the voltage clamp quality, electrode resistance was kept below 3 MΩ. Junction potentials were zeroed with the electrode in the standard bath solution. Gigaohm seal formation was achieved by suction and, after establishing the whole cell configuration, the capacitive transients elicited by symmetrical 10 mV voltage clamp steps from −80 mV were recorded at 50 kHz for calculation of cell capacitance. The normal bath solution for the whole-cell recordings was: NaCl 130 mM, KCl 5 mM, MgCl2 1.2 mM, CaCl2 1.8 mM, HEPES 10 mM, glucose 5.2 mM and the pH was adjusted to 7.4 with NaOH. Pipettes were filled with KCl 140 mM, MgCl2 0.5 mM, CaCl2 0.1 mM, ethylenebis(oxonitrilo) tetra-acetic acid (EGTA) 0.09 mM, HEPES 10 mM, glucose 10 mM and the pH was adjusted to 7.4 with KOH.
# After establishment of whole-cell recordings and collecting control recordings for approximately 5 minutes until the current elicited by depolarization stabilized, cilostazol was applied to the bath. In the experiments, using glibenclamide or iberiotoxin, cilostazol was applied to the bath about 20 minutes after administering glibenclamide or iberiotoxin.
# [2] = system: PTEN; test: Suppression of TNF-α-stimulated increase in PTEN phosphorylation level, Western blot in SK-N-SH cells; format: cell-based, human; conditions: cilostazol 1, 10 and 100 μM given 3 hours before TNF-α (50 ng/ml, one hour)
# Protocol: as §1
# Preparation of TNF-α solution: TNF-α (Upstate Biotechnology, Inc., Lake Placid, N.Y.) was dissolved in the phosphate buffered saline as a 10 μg/ml stock solution.
# Western blot analysis: The confluent cells received MEM medium with 1% FBS plus cilostazol 3 hours prior to stimulation with TNF-α and then were exposed to TNF-α for one hour.
# The cells were lysed in lysis buffer containing 50 mM Tris-Cl (pH 8.0), 150 mM NaCl, 0.02% sodium azide, 100 μg/ml phenylmethylsulfonyl fluoride, 1 μg/ml aprotinin and 1% Triton X-100. […] The signals of the bands were quantified using a GS-710 Calibrated imaging Densitomerter (Bio-Rad Laboratories, Hercules, Calif.). The results were expressed as a relative density. […]
# Statistical analysis: The results are expressed as means±SEM. Statistical differences between groups were determined by Student's t-test. p<0.05 was considered to be significant.
# T1 sequence (Q12791 whole entry): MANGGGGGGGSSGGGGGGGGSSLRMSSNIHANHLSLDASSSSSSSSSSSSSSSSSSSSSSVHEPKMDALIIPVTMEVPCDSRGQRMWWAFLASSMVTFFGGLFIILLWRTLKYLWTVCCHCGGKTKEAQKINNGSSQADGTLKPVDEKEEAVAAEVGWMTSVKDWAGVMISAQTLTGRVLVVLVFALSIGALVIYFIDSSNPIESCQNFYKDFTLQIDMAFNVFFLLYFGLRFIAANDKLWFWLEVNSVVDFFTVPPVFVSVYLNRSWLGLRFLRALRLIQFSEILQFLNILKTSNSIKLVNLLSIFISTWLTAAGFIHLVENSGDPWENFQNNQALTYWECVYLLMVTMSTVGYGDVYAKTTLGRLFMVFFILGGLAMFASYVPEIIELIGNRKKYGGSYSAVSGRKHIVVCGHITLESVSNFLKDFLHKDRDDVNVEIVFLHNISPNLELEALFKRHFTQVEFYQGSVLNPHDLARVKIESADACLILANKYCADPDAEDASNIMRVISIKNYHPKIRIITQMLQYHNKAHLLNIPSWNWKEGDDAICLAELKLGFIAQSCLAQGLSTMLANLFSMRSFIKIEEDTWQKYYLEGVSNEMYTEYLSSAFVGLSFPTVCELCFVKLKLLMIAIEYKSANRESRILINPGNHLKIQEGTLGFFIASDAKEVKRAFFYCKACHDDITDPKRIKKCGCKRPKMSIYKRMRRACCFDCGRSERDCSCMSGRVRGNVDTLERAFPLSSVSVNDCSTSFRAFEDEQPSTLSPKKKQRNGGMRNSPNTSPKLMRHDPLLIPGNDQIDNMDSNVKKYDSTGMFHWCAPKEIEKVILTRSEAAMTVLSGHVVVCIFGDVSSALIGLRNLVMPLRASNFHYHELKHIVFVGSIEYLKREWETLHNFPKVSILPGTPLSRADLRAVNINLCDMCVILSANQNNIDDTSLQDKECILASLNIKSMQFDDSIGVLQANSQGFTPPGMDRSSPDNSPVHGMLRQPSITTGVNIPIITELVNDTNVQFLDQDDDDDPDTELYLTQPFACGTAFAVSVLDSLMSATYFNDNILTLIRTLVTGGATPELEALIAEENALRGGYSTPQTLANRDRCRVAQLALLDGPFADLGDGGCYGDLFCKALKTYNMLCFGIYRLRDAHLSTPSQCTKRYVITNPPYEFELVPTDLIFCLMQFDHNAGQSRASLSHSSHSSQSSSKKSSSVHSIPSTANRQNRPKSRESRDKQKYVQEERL
compound,measurement,setting,value
"O=C1CCc2cc(OCCCCc3nnnn3C3CCCCC3)ccc2N1 [cilostazol, 6-[4-(1-cyclohexyl-1H-tetrazol-5-yl)butoxy]-3,4-dihydro-carbostyril]",Maxi-K channel-mediated currents in co-existence of glibenclamide,[1]; cilostazol applied about 20 minutes after glibenclamide,increase in maxi-K channel-medicated currents was given
same,whole-cell calcium activated K+ current,[1]; cilostazol applied to the bath alone,significantly increased
same,K+ current when added together with iberiotoxin,"[1]; cilostazol together with iberiotoxin, compared with iberiotoxin alone",increase of the current was rather less than iberiotoxin alone
same,TNF-α-stimulated increased PTEN phosphorylation level,[2],concentration-dependently suppressed
iberiotoxin,block of the cilostazol-increased K+ current,[1]; iberiotoxin 100 nM added to the bath,reversibly blocked
"COc1ccc(Cl)cc1C(=O)NCCc1ccc(S(=O)(=O)NC(=O)NC2CCCCC2)cc1 [glibenclamide, 5-chloro-N-[2-[4-[[[(cyclohexyl-amino)carbonyl]amino]sulfonyl]phenyl]ethyl]-2-methoxy-benzamide]",block of the cilostazol-increased K+ current,[1]; glibenclamide 10 μM added to the bath,not
same,"Maxi-K channel-mediated currents, blocker alone",[1]; glibenclamide alone,could not increase
